Blank lines part the entries; values can stand above or below the molecule they belong to.
Columns and labels:
[1] = tested on: human-derived fibroblast(ATCC, Hs68); assay: Cell toxicity and activity, MTT; assay type: cell-based; conditions: for Cell activity: at LD50
Protocol: Test cells of human-derived fibroblast(ATCC, Hs68) were cultivated in DMEM medium added by 10% FBS at 37° C. in the condition of 5%CO2, 100% humidity. 1×10^5 cells/ml of cells were seeded in 96 plate and incubated at 37° C. for 24 hr. Samples sterilized by 0.2 µm filter were added according to the fixed concentration and further incubated at 37° C. for 24 hr. Then, MTT regent was added and incubated at 37° C. for 4 hr, then the culture solution was removed. After, 1N NaOH isopropane solution was added and stirred for 20 min, the absorbance at 565 nm was measured. Then, the cell apoptosis concentration was determined by comparing the untreated cell (survival ratio: 100%).
Cell activity at LD50 was 20%, which was satisfactory level.

[2] = Anti-oxidant effect, activated oxygen removal by NBT method; assay type: biochemical; conditions: 0.1%(wt/wt) sample solution; NBT absorbance at 560 nm; suppression ratio
Protocol: And whitening activity and anti-oxidant activity were measured by determining tyrosinase inhibition effect and using NBT method. 0.1% vitamin C, 0.1% vitamin E, kojic acid and albutin were used as sample. To determine anti-oxidant effect, activated oxygen produced from xanthine and xanthine oxidase were measured using NBT method and activated oxygen removal effect of the tested materials was determined. Activated oxygen was produced by xanthine and xanthine oxidase. The activated oxygen was determined by measuring the blue color produced from the reaction of the activated oxygen and Nitroblue tetrasolium (NBT) at 560 nm of wavelength. 6) Xanthines oxidase solution: xanthine oxidase(Boehringer) was diluted about 100 times so that its blank test absorbance within the range of 0.2-0.23. In other word, the purified water was diluted so that the absorbance change be A560=0.3/20 min. (1)1,2,3,4 and 5 are introduced into vial bottle and 0.1 ml of sample solution is added, which are maintained at 5° C. for 10 min. (2) It is added by 6 and stirred immediately, followed by 20 min of culture at 25° C. (3) After 7 is added, the reaction is stopped. Then, absorbance (St) at 560 nm is measured. (4) Blank test is carried out in the same way except distilled water is used instead of sample solution and absorbance (Bt) is measured. 5) Blank test for sample is carried out in the same way except distilled water is used instead of 6 and absorbance (Bo) is measured. The effect is calculated in the following way. Suppression ratio (%)=[1−(St−So)/(Bt−Bo)×100

tyrosinase = assay: Tyrosinase inhibition effect (whitening activity); assay type: biochemical; conditions: 0.1%(wt/wt) sample solution; tyrosine 0.2 mg/ml, tyrosinase 680 units/ml, 37° C.
Protocol: And whitening activity and anti-oxidant activity were measured by determining tyrosinase inhibition effect and using NBT method. 0.1% vitamin C, 0.1% vitamin E, kojic acid and albutin were used as sample. […] A solution for blank test was tyrosine 1 ml+phosphoric acid buffer 1 ml+distilled water 1 ml. The procedure of the test is as follows. [table] 1) A,B and C are mixed and maintained at 37° C. for 30 min. 2) D is added and maintained for just 30 min. 3) After 10 min±10 sec, they are took out and the reaction ends in a refrigerating condition by ice. 4) when comparing the absorbance the comparative samples, the absorbencies of comparative group are tested and then those of blank test group are test(at […]). Tyrosinase activity inhibition effect(%) us calculated in the following way and the result is shown as Table 2. Tyrosinase activity inhibition effect (%): [1−(E−B/C)]×100 (B: blank test group, C: control group, E: test group)

[3] = tested on: collagen in the skin of hairless mice; assay: Collagen formation effect, skin tissue test for collagen proliferation promoting effect; assay type: in vivo; conditions: 0.1%(wt/wt) 1,3-BG solution applied to body of hairless mice
Protocol: To confirm the collagen formation effect of the synthesized 3,9-diferulylcoumestrol, 10 female hairless mice of 8week age were prepared. From the 2 mice, skin was taken out and standard dye samples were prepared using the side and middle part of the skin for investigation the collagen proliferation level. The other 8 mice were divided into two for the applied group and the control group.
In the same test condition, the whole body except head and belly of the applied group and the control group and were applied by 3,9-diferulycoumestrol 0.1%(wt/wt) 1,3-BG solution and 1,3-BG solution, for 15 days and 30 days.
From the applied group and the control group respectively, 2 mice were selected and their skins were cut out, then dyed samples were obtained from the side and middle part of the skin. After 30 days, skin dyed samples were obtained in the same way. For each of the obtained 10 dyed skin samples of the control group and the applied group, collagen proliferation promoting effect were compared on the basis of the skin condition of &week age. […] From the result, it was experimentally confirmed that 3,9diferulylcoumestrol is excellent in collagen synthesis and collagen proliferation promotion(FIG. 2)

[4] = 24 hr, diluted in 1,3-butylenglycol

Molecule: O=c1oc2cc(O)ccc2c2oc3cc(O)ccc3c12 [Coumestrol]
- Evaluation (LD50) [1]: Safe
- Evaluation (cell activity) [1]: excellent
- LD50 % concentration ([1]; 24 hr): 0.0048%
- LD50 mole concentration(mM) ([1]; 24 hr): 0.078 mM
- Cell activity [1]: 20%
- Anti-oxidant effect (%) [2]: 28%

Molecule: Tocopherol
- Anti-oxidant effect (%) [2]: 43%

Molecule: COc1cc(C=CC(=O)Oc2ccc3c(c2)oc(=O)c2c4ccc(OC(=O)C=Cc5ccc(O)c(OC)c5)cc4oc32)ccc1O [3,9-diferulylcoumestrol]
- Tyrosinase inhibition effect (%) (tyrosinase): 76%
- concentration range in which cell apoptosis did not show [1, 4]: ≤ 78 µM
- concentration range in which cell apoptosis did not show (%) [1, 4]: ≤ 0.0048%
- Cell activity [1]: 20%
- collagen synthesis and proliferation in skin ([3]; after 2 weeks (15 days), vs control groups): collagen synthesis and proliferation were found
- collagen proliferation in corium layer and tissue density ([3]; after 30 days): collagen proliferation in corium layer was increased and the tissue density was raised
- Anti-oxidant effect (%) [2]: 42%

- Tyrosinase inhibition effect (%) (tyrosinase): 40%
Molecule: OC[C@H]1O[C@@H](Oc2ccc(O)cc2)[C@H](O)[C@@H](O)[C@@H]1O [Albutin]

- Tyrosinase inhibition effect (%) (tyrosinase): 91%
Molecule: O=c1cc(CO)occ1O [Kojic acid]

- Tyrosinase inhibition effect (%) (tyrosinase): 30%
Molecule: O=C1O[C@H]([C@@H](O)CO)C(O)=C1O [Ascorbic acid]
